One molecule from patent US11378572B2, “Therapeutic agent for immune cell migration-caused disease and method for screening same” (ZYMEDI CO., LTD., priority 2017, dated 2022) can be followed below.

The test system of this data set is pulmonary arterial hypertension (PAH) model. Kind of data set: Monocrotaline pulmonary arterial hypertension (PAH) model, BC-KI-00053. Format: in vivo, SD rats. Here is the method: In order to induce PAH in 6-week-old female SD rats (Oriental Bio), 60 mg/kg of MCT (monocrotaline), a substance that causes pulmonary hypertension through pulmonary arterial injury, was injected subcutaneously. Then animals were divided into four groups (5 animals per group), and orally administered with vehicle, sildenafil (25 mg/kg, once daily) or BC-KI-00053 (25 or 50 mg/kg, dissolved in vehicle, once daily) for 3 weeks. Vehicle was corn oil:polyethylene glycol 400:Tween 80:methyl cellulose (1%)=20:30:1:49.
Three weeks later, rats were anesthetized with isoflurane, and blood flow and pressure were measured using an MPVS cardiovascular pressure and volume system (model name: MPVS Ultra, manufactured by Millar Instruments). Right ventricular systolic pressure (RVESP) and diastolic pressure, left ventricular systolic pressure and diastolic pressure were measured using a dedicated catheter (Mikro-Tip rat pressure catheter, manufactured by Millar Instruments). Cardiac output was measured using a perivascular blood flow probe (Transonic® Flowprobes, manufactured by […]), and experimental techniques were performed in the same manner as described in the literature: Pacher P, Nagayama T, Mukhopadhyay P, Batkai S, Kass D A. Measurement of cardiac function using pressure-volume conductance catheter technique in mice and rats. Nat Protoc 2008, 3(9):1422-34.
IHC staining for CD68, a monocyte/macrophage marker, was performed using lung tissues from each experimental group. Collected lungs were fixed in PFA (paraformaldehyde) according to the conventional procedure, and then embedded in paraffin through water washing, dehydration, and tissue clearing processes. Lung tissue paraffin blocks of rats were cut to a thickness of […] and slides were prepared. Thereafter, staining was performed as follows. First, three times for 5 minutes xylene treatment, 2 minutes in 100% ethanol twice, 95% ethanol, 90% ethanol, 70% ethanol, DW treatment for 2 minutes in this order and washed with PBS for 5 minutes (2 times). After treatment with 0.3% H2O2 (10 minutes), slides were washed twice with PBS for 5 minutes. Then slides were soaked in 0.01M citrate buffer of pH 6.0 and microwaved for 3 minutes and 30 seconds, then antigen retrieval of cooling for 10 seconds and reheating for 10 seconds was repeated for 10 minutes followed by 20 minutes of cooling at room temperature. Afterwards, slides were washed three times for 5 minutes with PBS-T (0.03% Triton-X). After 30 minutes blocking (2% BSA & 2% goat serum in PBS) at 4° C. anti-CD68 antibody (1:200, Abcam, ab31630) was treated overnight at 4° C. After washing three times with PBS-T for 5 minutes, slides were treated with polymer-HRP anti-mouse envision kit (DAKO) for 1 hour at 4° C. After washing 3 times with PBS-T for 5 minutes, 1 ml of DAB substrate buffer and 20 ul of DAB chromogen were mixed and treated with tissue. After 10 minutes when colors developed, slides were washed twice with tertiary distilled water. Stained tissues were treated with Mayer's hematoxylin (Sigma) for 1 minute, and then treated in the order of 70% ethanol, 90% ethanol, 95% ethanol, and 100% ethanol, twice for 2 minutes for each solution. Finally, after three times of xylene treatment for 5 minutes, cover slides were mounted using a mounting solution, and observed with an optical microscope.

Where [1] appears, read: 25 or 50 mg/kg oral once daily 3 weeks.

Turning to `COc1ccc(CCN(Cc2ccc(C(=O)O)cc2)c2nc3cccc(F)c3s2)cc1` [BC-KI-00053, 4-({(7-fluorobenzo[d]thiazol-2-yl)[2-(4-methoxyphenyl)ethyl]amino}methyl)benzoic acid], the “left ventricular end systolic pressure (LVESP)” value (50 mg/kg, not statistically significant) was “increased”. Under setting [1], the “left ventricular end systolic pressure (LVESP)” value is given as “no decrease” and the “lung tissue infiltration of monocytes/macrophages (CD68 IHC)” value was “clearly reduced”. Besides, for the setting “25 or 50 mg/kg oral once daily 3 weeks, concentration dependent”, the “RVESP (right ventricular systolic pressure)” value is reported as “significantly reduced”. The “reduction of lung monocyte/macrophage infiltration compared with sildenafil” value (CD68 IHC) is recorded as “noticeably superior to sildenafil”. Further, the “tendency to affect systemic artery pressure compared with sildenafil” value (rat, in vivo) is given as “lower tendency”.
